Experimental data taken from ChEMBL document CHEMBL4376806, “Antibiotic Adjuvants: Make Antibiotics Great Again!” (2019).

How the values were obtained:
Type in all cases: functional
[1] = test system: Pseudomonas aeruginosa; assay: Potentiation of doxycycline-induced antibacterial activity against Pseudomonas aeruginosa PAO1 assessed as doxycycline MIC at 1.22 ug/ml by broth micro-dilution method (reference value: 32 ug/ml)
[2] = test system: Pseudomonas aeruginosa; assay: Synergistic antibacterial activity against Pseudomonas aeruginosa assessed as fractional inhibitory concentration index in presence of doxycycline after 18 hrs by checkerboard assay
[3] = test system: Klebsiella pneumoniae; assay: Potentiation of doxycycline-induced antibacterial activity against Klebsiella pneumoniae KPC2 assessed as doxycycline MIC at 2.5 uM after 18 hrs (reference value: 10 ug/ml); details: KPC2, 18 h
[4] = test system: Klebsiella aerogenes; assay: Potentiation of doxycycline-induced antibacterial activity against Enterobacter aerogenes EA289 assessed as doxycycline MIC at 2.5 uM after 18 hrs (reference value: 40 ug/ml); details: EA289, 18 h
[5] = test system: Pseudomonas aeruginosa; assay: Potentiation of doxycycline-induced antibacterial activity against Pseudomonas aeruginosa PAO1 assessed as doxycycline MIC at 2.5 uM after 18 hrs (reference value: 20 ug/ml); details: PAO1, 18 h
[6] = test system: Escherichia coli; assay: Potentiation of novobiocin-induced antibacterial activity against Escherichia coli W3110 assessed as novobiocin MIC at 8 ug/ml after 20 hrs by liquid microdilution method (reference value: 128 ug/ml); details: K-12 substr. W3110, 20 h
[7] = test system: Escherichia coli; assay: Potentiation of erythromycin-induced antibacterial activity against Escherichia coli W3110 assessed as erythromycin MIC at 8 ug/ml after 20 hrs by liquid microdilution method (reference value: 64 ug/ml); details: K-12 substr. W3110, 20 h
[8] = test system: Pseudomonas aeruginosa; assay: Potentiation of doxycycline-induced antibacterial activity against Pseudomonas aeruginosa PAO1 assessed as doxycycline MIC at 1.25 uM after 18 hrs (reference value: 20 ug/ml); details: PAO1, 18 h
[9] = test system: Klebsiella aerogenes; assay: Potentiation of doxycycline-induced antibacterial activity against Enterobacter aerogenes EA289 assessed as doxycycline MIC at 5 uM after 18 hrs (reference value: 40 ug/ml); details: EA289, 18 h
[10] = test system: Pseudomonas aeruginosa; assay: Potentiation of doxycycline-induced antibacterial activity against Pseudomonas aeruginosa PAO1 assessed as doxycycline MIC at 2 ug/ml after 24 hrs by broth microdilution method (reference value: 16 ug/ml); details: PAO1, 24 h
[11] = test system: Klebsiella aerogenes; assay: Potentiation of doxycycline-induced antibacterial activity against Enterobacter aerogenes EA289 assessed as doxycycline MIC at 2 ug/ml after 24 hrs by broth microdilution method (reference value: 40 ug/ml); details: EA289, 24 h
[12] = test system: Klebsiella aerogenes; assay: Potentiation of erythromycin-induced antibacterial activity against Enterobacter aerogenes ATCC 13048 assessed as erythromycin MIC at 1.6 ug/ml after 18 hrs (reference value: 512 ug/ml); details: ATCC 13048, 18 h
[13] = test system: Klebsiella aerogenes; assay: Potentiation of cefepime-induced antibacterial activity against Enterobacter aerogenes ATCC 13048 assessed as cefepime MIC at 1.6 ug/ml after 18 hrs (reference value: 0.25 ug/ml); details: ATCC 13048, 18 h
[14] = test system: Klebsiella aerogenes; assay: Potentiation of tetracycline-induced antibacterial activity against Enterobacter aerogenes ATCC 13048 assessed as tetracycline MIC at 1.6 ug/ml after 18 hrs (reference value: 2 ug/ml); details: ATCC 13048, 18 h
[15] = test system: Klebsiella aerogenes; assay: Potentiation of ciprofloxacin-induced antibacterial activity against Enterobacter aerogenes ATCC 13048 assessed as ciprofloxacin MIC at 1.6 ug/ml after 18 hrs (reference value: 0.5 ug/ml); details: ATCC 13048, 18 h
[16] = test system: Escherichia coli; assay: Potentiation of ciprofloxacin-induced antibacterial activity against Escherichia coli AG100 assessed as ciprofloxacin MIC at 0.4 ug/ml after 18 hrs (reference value: 0.25 ug/ml); details: AG100, 18 h
[17] = test system: Pseudomonas aeruginosa; assay: Potentiation of erythromycin-induced antibacterial activity against Pseudomonas aeruginosa PAO1 assessed as erythromycin MIC at 3.2 ug/ml after 18 hrs (reference value: 512 ug/ml); details: PAO1, 18 h
[18] = test system: Pseudomonas aeruginosa; assay: Potentiation of chloramphenicol-induced antibacterial activity against Pseudomonas aeruginosa PAO1 assessed as chloramphenicol MIC at 3.2 ug/ml after 18 hrs (reference value: 512 ug/ml); details: PAO1, 18 h
[19] = test system: Escherichia coli; assay: Potentiation of erythromycin-induced antibacterial activity against Escherichia coli AG100 assessed as erythromycin MIC at 0.4 ug/ml after 18 hrs (reference value: 512 ug/ml); details: AG100, 18 h
[20] = test system: Pseudomonas aeruginosa; assay: Potentiation of cefepime-induced antibacterial activity against Pseudomonas aeruginosa PAO1 assessed as cefepime MIC at 3.2 ug/ml after 18 hrs (reference value: 8 ug/ml); details: PAO1, 18 h
[21] = test system: Escherichia coli; assay: Potentiation of chloramphenicol-induced antibacterial activity against Escherichia coli AG100 assessed as chloramphenicol MIC at 0.4 ug/ml after 18 hrs (reference value: 8 ug/ml); details: AG100, 18 h
[22] = test system: Pseudomonas aeruginosa; assay: Potentiation of ciprofloxacin-induced antibacterial activity against Pseudomonas aeruginosa PAO1 assessed as ciprofloxacin MIC at 3.2 ug/ml after 18 hrs (reference value: 16 ug/ml); details: PAO1, 18 h
[23] = test system: Klebsiella aerogenes; assay: Potentiation of chloramphenicol-induced antibacterial activity against Enterobacter aerogenes ATCC 13048 assessed as chloramphenicol MIC at 1.6 ug/ml after 18 hrs (reference value: 4 ug/ml); details: ATCC 13048, 18 h
[24] = test system: Pseudomonas aeruginosa; assay: Potentiation of tetracycline-induced antibacterial activity against Pseudomonas aeruginosa PAO1 assessed as tetracycline MIC at 3.2 ug/ml after 18 hrs (reference value: 16 ug/ml); details: PAO1, 18 h
[25] = test system: Escherichia coli; assay: Potentiation of tetracycline-induced antibacterial activity against Escherichia coli AG100 assessed as tetracycline MIC at 0.4 ug/ml after 18 hrs (reference value: 2 ug/ml); details: AG100, 18 h
[26] = test system: Escherichia coli; assay: Potentiation of cefepime-induced antibacterial activity against Escherichia coli AG100 assessed as cefepime MIC at 0.4 ug/ml after 18 hrs (reference value: 0.5 ug/ml); details: AG100, 18 h

With `CC(C)=C/C=C\C(C)=C/CC/C(C)=C/CNCCCNCCCCNCCCN.Cl.Cl.Cl.Cl` the MIC [1] was 2 µg/mL and the “fractional inhibitory concentration index (FICI)” value [2] was 0.09.

For `Cl.Cl.Cl.NCCCNCCCNC1CCCCCCCCCCCCCC1`, the MIC [3] was 2 µg/mL, the MIC [4] was 2 µg/mL and the MIC [5] was 2 µg/mL.

In the case of `COc1ccccc1CNCCCCCCNCCCCCCCCNCCCCCCNCc1ccccc1OC` [METHOCTRAMINE], the MIC [6] is reported as 16 µg/mL and the MIC [7] is reported as 16 µg/mL.

`Cl.Cl.Cl.NCCCCNCCCCNC1CCCCCCCCCCCCCC1` was tested, and the MIC [3] was 2 µg/mL, the MIC [8] was 2 µg/mL and the MIC [9] was 2 µg/mL.

`CC(C)OC(=O)CC[C@@H](C)[C@H]1CC[C@H]2[C@@H]3CC[C@H]4C[C@@H](NCCCNCCCNCCCCNCCCN)CC[C@]4(C)[C@H]3C[C@H](O)[C@]12C` showed an MIC [10] of 2 µg/mL and an MIC [11] of 0.5 µg/mL.

In the case of `CC(C)[C@@H](CC[C@@H](C)[C@H]1CC[C@H]2[C@@H]3[C@H](O)C[C@H]4C[C@@H](NCCCNCCCCN)CC[C@]4(C)[C@H]3CC[C@]12C)OS(=O)(=O)O` [SQUALAMINE], the MIC [12] is reported as 128 µg/mL, the MIC [13] is reported as 0.03 µg/mL and the MIC [14] is reported as 0.25 µg/mL. It also gave an MIC [15] of 0.015 µg/mL, an MIC [16] of 0.03 µg/mL and an MIC [17] of 256 µg/mL. The MIC [18] was 16 µg/mL, the MIC [19] was 256 µg/mL and the MIC [20] was 1 µg/mL. The MIC [21] was 0.5 µg/mL, the MIC [22] was less than 1 µg/mL and the MIC [23] was 0.25 µg/mL. For the same molecule, the MIC [24] was 4 µg/mL, the MIC [25] was 0.125 µg/mL and the MIC [26] was 0.06 µg/mL.
